The target in this assay is μ-opioid receptor (Homo sapiens (Human), UniProt P35372). Kind of assay: μ-opioid receptor [35S]GTPγS functional assay, HEK-293 cells (Table 6). The format is biochemical. The note with it: for EC50: μ GTP. On the procedure:
μ-Opioid Receptor Functional Assay Procedures: [^35S]GTPγS functional assays were conducted using freshly thawed μ-receptor membranes prepared in-house from a cell line expressing recombinant μ opioid receptor in a HEK-293, CHO or U-2 OS cell background, or purchased from a commercial source (Perkin Elmer, Shelton, Conn.; or DiscovRx, Fremont, Calif.). Assay reactions were prepared by sequentially adding the following reagents to binding buffer (100 mM NaCl, 10 mM MgCl2, 20 mM HEPES, pH 7.4) on ice (final concentrations indicated): membrane protein (0.026 mg/mL), saponin ([…]), GDP ([…]) and [^35S]GTPγS (0.20 nM; Perkin Elmer, Shelton, Conn.). The prepared membrane solution (190 μl/well) was transferred to 96-shallow well polypropylene plates containing 10 μl of 20× concentrated stock solutions of the agonist [D-Ala^2, N-methyl-Phe^4 Gly-ol^5]-enkephalin (DAMGO) prepared in dimethyl sulfoxide (DMSO). Plates were incubated for 30 min at about 25° C. with shaking Reactions were terminated by rapid filtration onto 96-well Unifilter GF/B filter plates (Perkin Elmer, Shelton, Conn.) using a 96-well tissue harvester (Perkin Elmer, Shelton, Conn.) followed by three filtration washes with 200 μl of ice-cold wash buffer (10 mM NaH2PO4, 10 mM Na2HPO4, pH 7.4). Filter plates were subsequently dried at 50° C. for 2-3 hours. BetaScint scintillation cocktail (Perkin Elmer, Shelton, Conn.) was added (50 μl/well) and plates were counted using a Packard Top-Count for 1 min/well. Data were analyzed using the sigmoidal dose-response curve fitting functions in GraphPad PRISM v. 3.0, or an in-house function for non-linear, sigmoidal dose-response curve-fitting. [^35S]GTPγS functional assays can also be conducted using freshly thawed μ-receptor membranes prepared from a cell line expressing recombinant μ opioid receptor in a CHO-K1 cell background.
μ GTP Emax (%) is the maximal effect elicited by a compound relative to the effect elicited by DAMGO, a standard μ agonist. Generally, the μ GTP Emax (%) value measures the efficacy of a compound to treat or prevent pain or other Conditions.
The following TABLE 6 provides results on the activity response of certain Compounds of the Invention at the μ- and κ-opioid receptors determined as described above using HEK-293 cells.
Background: GTPγS is a poorly hydrolysed GTP analogue; its binding reports G protein activation.

On to `O=C(NCc1ccc(F)c(F)c1)[C@@H]1C[C@]23CCN(CC4CC4)[C@H](Cc4ccc(O)cc42)[C@]3(O)C1` [Compound 145, (2R,3aS,4R,9bS)-12-(cyclopropylmethyl)-N-(3,4-difluorobenzyl)-3a,8-dihydroxy-1,2,3,3a,4,5-hexahydro-4,9b-(epimino-ethano)cyclopenta[a]naphthalene-2-carboxamide], for which the Emax – broadly, the greatest response seen or fitted, relative to the assay's reference – (relative to DAMGO) is -1%. Besides, the EC50 (commonly the concentration giving half of the maximal effect) (bound given in μM) was greater than 20 µM.
As to `O=C(NCc1cccc(O)c1O)[C@@H]1C[C@]23CCN(CC4CC4)[C@H](Cc4ccc(O)cc42)[C@]3(O)C1` [Compound 124, (2R,3aS,4R,9bS)-12-(cyclopropylmethyl)-N-(2,3-dihydroxybenzyl)-3a,8-dihydroxy-1,2,3,3a,4,5-hexahydro-4,9b-(epimino-ethano)cyclopenta[a]naphthalene-2-carboxamide], the Emax (relative to DAMGO) stood at 1.93 ± 2.93%. Besides, where the note is “bound given in μM”, the concentration for a half-maximal effect (EC50) was greater than 20 µM.
`O=C(NCCc1ccc(Cl)c(Cl)c1)[C@@H]1C[C@]23CCN(CC4CC4)[C@H](Cc4ccc(O)cc42)[C@]3(O)C1` [Compound 131, (2R,3aS,4R,9bS)-12-(cyclopropylmethyl)-N-(3,4-dichlorophenethyl)-3a,8-dihydroxy-1,2,3,3a,4,5-hexahydro-4,9b-(epiminoethano)cyclopenta[a]naphthalene-2-carboxamide]: under “relative to DAMGO”, the Emax was found to be 1%. Moreover, the EC50 (bound given in μM) was greater than 20 µM.
On to `Cc1c(Cl)cccc1CNC(=O)[C@@H]1C[C@]23CCN(CC4CC4)[C@H](Cc4ccc(O)cc42)[C@]3(O)C1` [Compound 125, (2R,3aS,4R,9bS)-N-(3-chloro-2-methylbenzyl)-12-(cyclopropylmethyl)-3a,8-dihydroxy-1,2,3,3a,4,5-hexahydro-4,9b-(epiminoethano)cyclopenta-[a]naphthalene-2-carboxamide], for which the Emax (relative to DAMGO) was -1%. For the same molecule, for the setting “bound given in μM”, the EC50 is greater than 20 µM.
With `O=C(NCc1cc(Cl)cc(Cl)c1)[C@@H]1C[C@]23CCN(CC4CC4)[C@H](Cc4ccc(O)cc42)[C@]3(O)C1` [Compound 150, (2R,3aS,4R,9bS)-12-(cyclopropylmethyl)-N-(3,5-dichlorobenzyl)-3a,8-dihydroxy-1,2,3,3a,4,5-hexahydro-4,9b-(epimino-ethano)cyclopenta[a]naphthalene-2-carboxamide], the Emax (relative to DAMGO) was -1%. This molecule returned an EC50 (bound given in μM) greater than 20 µM.
As to `CN1CC[C@]23C[C@H](C(=O)NCc4ccc(Cl)cc4Cl)C[C@@]2(O)[C@H]1Cc1ccc(O)cc13` [Compound 107, (2S,3aS,4R,9bS)-N-(2,4-dichlorobenzyl)-3a,8-dihydroxy-12-methyl-1,2,3,3a,4,5-hexahydro-4,9b-(epiminoethano)cyclo-penta[a]naphthalene-2-carboxamide], a half-maximal effect (EC50) was put at 0.0108 ± 0.00083 µM. For the same molecule, under “relative to DAMGO”, the Emax was 94.7 ± 0.33%.
Consider `O=C(NCc1ccc(O)c(O)c1)[C@@H]1C[C@]23CCN(CC4CC4)[C@H](Cc4ccc(O)cc42)[C@]3(O)C1` [Compound 140, (2R,3aS,4R,9bS)-12-(cyclopropylmethyl)-N-(3,4-dihydroxybenzyl)-3a,8-dihydroxy-1,2,3,3a,4,5-hexahydro-4,9b-(epimino-ethano)cyclopenta[a]naphthalene-2-carboxamide], for which the Emax (relative to DAMGO) came out at 0.33 ± 0.67%. Under “bound given in μM”, this molecule registered an EC50 greater than 20 µM.
As to `O=C(NCc1ccccc1O)[C@@H]1C[C@]23CCN(CC4CC4)[C@H](Cc4ccc(O)cc42)[C@]3(O)C1` [Compound 149, (2R,3aS,4R,9bS)-12-(cyclopropylmethyl)-3a,8-dihydroxy-N-(2-hydroxybenzyl)-1,2,3,3a,4,5-hexahydro-4,9b-(epimino-ethano)cyclopenta[a]naphthalene-2-carboxamide], for the setting “relative to DAMGO”, the Emax amounted to 0%. The EC50 (bound given in μM) was greater than 20 µM.
As for `O=C(NCc1ccc(O)cc1Cl)[C@@H]1C[C@]23CCN(CC4CC4)[C@H](Cc4ccc(O)cc42)[C@]3(O)C1` [Compound 127, (2R,3aS,4R,9bS)-N-(2-chloro-4-hydroxybenzyl)-12-(cyclopropylmethyl)-3a,8-dihydroxy-1,2,3,3a,4,5-hexahydro-4,9b-(epiminoethano)cyclopenta-[a]naphthalene-2-carboxamide], the Emax (relative to DAMGO) was -1%. The molecule also displayed an EC50 (bound given in μM) greater than 20 µM.
Molecule `O=C(NCc1cc(F)cc(F)c1)[C@H]1C[C@]23CCN(CC4CC4)[C@H](Cc4ccc(O)cc42)[C@]3(O)C1` [Compound 143, (2S,3aS,4R,9bS)-12-(cyclopropylmethyl)-N-(3,5-difluorobenzyl)-3a,8-dihydroxy-1,2,3,3a,4,5-hexahydro-4,9b-(epimino-ethano)cyclopenta[a]naphthalene-2-carboxamide] came in with an EC50 of 0.00209 ± 0.00045 µM. For the setting “relative to DAMGO”, the Emax is 39.9 ± 1.01%.
As for “(2R,3aS,4R,9bS)-N-(2-chlorobenzyl)-12- (cyclopropylmethyl)-3a,8-dihydroxy- 1,2,3,3a,4,5-hexahydro-4,9b-(epimino- ethano)cyclopenta[a]naphthalene-2- carboxamide [Compound 148]”, the “μ Emax (%)” value (relative to DAMGO) was found to be 1.00%. The molecule also returned an EC50 (bound given in μM) greater than 20 µM.
For the molecule `O=C(NCc1cc(Cl)ccc1Cl)[C@@H]1C[C@]23CCN(CC4CC4)[C@H](Cc4ccc(O)cc42)[C@]3(O)C1` [Compound 151, (2R,3aS,4R,9bS)-12-(cyclopropylmethyl)-N-(2,5-dichlorobenzyl)-3a,8-dihydroxy-1,2,3,3a,4,5-hexahydro-4,9b-(epimino-ethano)cyclopenta[a]naphthalene-2-carboxamide], under “relative to DAMGO”, the Emax was -1%. The EC50 (bound given in μM) is greater than 20 µM.
As for `CN1CC[C@]23C[C@@H](C(=O)NCCO)C[C@@]2(O)[C@H]1Cc1ccc(O)cc13` [Compound 114, (2R,3aS,4R,9bS)-3a,8-dihydroxy-N-(2-hydroxyethyl)-12-methyl-1,2,3,3a,4,5-hexahydro-4,9b-(epiminoethano)cyclo-penta[a]naphthalene-2-carboxamide], the concentration giving a half-maximal response (EC50) stood at 8.44 ± 1.54 µM. Besides, for the setting “relative to DAMGO”, the Emax is 23 ± 1.54%.
Turning to `Cc1ccc(CNC(=O)[C@@H]2C[C@]34CCN(CC5CC5)[C@H](Cc5ccc(C#N)cc53)[C@]4(O)C2)cc1` [Compound 120, (2R,3aS,4R,9bS)-8-cyano-12-(cyclopropylmethyl)-3a-hydroxy-N-(4-methylbenzyl)-1,2,3,3a,4,5-hexahydro-4,9b-(epiminoethano)cyclopenta-[a]naphthalene-2-carboxamide], the EC50 amounted to 0.631 ± 0.152 µM. In addition, the Emax (relative to DAMGO) amounted to 22.7 ± 1.92%.
In the case of `O=C(NCCc1ccc(Cl)cc1Cl)[C@@H]1C[C@]23CCN(CC4CC4)[C@H](Cc4ccc(O)cc42)[C@]3(O)C1` [Compound 130, (2R,3aS,4R,9bS)-12-(cyclopropylmethyl)-N-(2,4-dichlorophenethyl)-3a,8-dihydroxy-1,2,3,3a,4,5-hexahydro-4,9b-(epiminoethano)cyclopenta[a]naphthalene-2-carboxamide], the Emax (relative to DAMGO) stood at 0%. In addition, the EC50 (bound given in μM) was greater than 20 µM.
On to `CN1CC[C@]23C[C@H](C(=O)NCCO)C[C@@]2(O)[C@H]1Cc1ccc(O)cc13` [Compound 115, (2S,3aS,4R,9bS)-3a,8-dihydroxy-N-(2-hydroxyethyl)-12-methyl-1,2,3,3a,4,5-hexahydro-4,9b-(epiminoethano)cyclo-penta[a]naphthalene-2-carboxamide], for which the EC50 stood at 0.917 ± 0.131 µM. In addition, the Emax (relative to DAMGO) turned out to be 35 ± 1.14%.
Turning to `O=C(NCc1ccc(O)c(Cl)c1)[C@@H]1C[C@]23CCN(CC4CC4)[C@H](Cc4ccc(O)cc42)[C@]3(O)C1` [Compound 128, (2R,3aS,4R,9bS)-N-(3-chloro-4-hydroxybenzyl)-12-(cyclopropylmethyl)-3a,8-dihydroxy-1,2,3,3a,4,5-hexahydro-4,9b-(epiminoethano)cyclopenta-[a]naphthalene-2-carboxamide], the Emax (relative to DAMGO) was -1%. The same molecule had an EC50 (bound given in μM) greater than 20 µM.
`Cc1ccc(CNC(=O)[C@H]2C[C@]34CCN(CC5CC5)[C@H](Cc5ccc(C(N)=O)cc53)[C@]4(O)C2)cc1` [Compound 116, (2S,3aS,4R,9bS)-12-(cyclopropylmethyl)-3a-hydroxy-N^2-(4-methylbenzyl)-1,2,3,3a,4,5-hexahydro-4,9b-(epimino-ethano)cyclopenta[a]naphthalene-2,8-dicarboxamide] displayed an EC50 of 0.00345 ± 0.00016 µM. Under “relative to DAMGO”, the Emax stood at 23.6 ± 1.05%.
Molecule `NC(=O)c1ccc2c(c1)[C@]13CCN(CC4CC4)[C@H](C2)[C@]1(O)C[C@@H](C(=O)NCCN1CCOCC1)C3` [Compound 119, (2S,3aS,4R,9bS)-12-(cyclopropylmethyl)-3a-hydroxy-N^2-(2-morpholinoethyl)-1,2,3,3a,4,5-hexahydro-4,9b-(epimino-ethano)cyclopenta[a]naphthalene-2,8-dicarboxamide] displayed an EC50 of 0.0134 ± 0.00419 µM. Also, under “relative to DAMGO”, the Emax was 18.4 ± 1.55%.

For the origin of these results see US9656962B2, “Ring-contracted morphinans and the use thereof” (Purdue Pharma L.P., priority 2013, dated 2017).
